Entries after “also recorded” stand apart in the source; their conditions may differ.
Columns and labels:
[1] = tested on: C57BL/6J mice, caerulein-evoked acute pancreatitis; experiment: Caerulein-evoked acute pancreatitis mouse model; assay type: in vivo; settings: 10 mg/kg i.p., 30 min before caerulein
Method: C57BL/6J male mice 8-10 weeks of age were subjected to acute pan-creatitis by intraperitoneal injections of supramaximal doses of caerulein (50 μg/kg) every hour for a total of 6 h, as previously described in^61. Control animals received 25% DMSO-saline solution by intraperitoneal injection every hour for 6 h. Compound 16-8 was dissolved in this vehicle (10 mg/kg) and injected i.p. 30 min prior to the first injection of caerulein. Animals were sacrificed 1 h after the last injection. Blood was collected and pancreatic tissue was promptly isolated, weighed for determination of pancreas wet weight/body weight ratio. Samples of tis-sues were fixed overnight in 10% neutral-buffered formalin, paraffin embedded and H&E-stained, or pancreatic tissue was quickly frozen and assessed for myeloperoxidase (MPO) activity. Serum amylase, MPO and histologic evaluation were conducted as described previously^61.
Assessment of nocifensive behavior^8: Mice were housed in individual cages and video-recorded during the entire experiment. Two mice at a time were observed. Linear movement was measured as one event when mice passed through the median plane of the cage. Analysis began immediately after the first caerulein/vehicle injec-tion and continued until the end of the experiment. Results were expressed as the sum of the movement events spanning the 6 h time-period following the first injection.

[2] = Stability of compound in plasma; settings: 4 h incubation in plasma at 37° C.
From the text: Results are expressed as means±SEM, n=6 mice/experimental group for all experiments.

[3] = tested on: primary mouse keratinocytes (1° MK); experiment: ET1 secretion by non-stimulated primary mouse keratinocytes (ELISA); assay type: cell-based
Method: FIGS. 8A-8D: Central role for KC TRPV4 in UVB-evoked Ca^++ signaling and nocifensive behavior—ET1-related supplementary findings. (FIG. 8A) Augmentation of GSK101-evoked Ca^++ signaling by ET1. Shown are averaged Ca^++ measurements (fura-2) in response to 5 nM GSK101. Note the increase in signal in response to co-exposure to ET1. (FIG. 8B) ET1 secretion by non-stimulated 1° MK depends on TRPV4 and PLC. Shown are relative ET1 concentrations (determined by ELISA, pg/mL; vehicle-treated and WT control normalized to 100) in supernatant of non-stimulated 1° MK. Note the clear dependence on TRPV4, as indicated by a 50% reduction in Trpv4^−/− 1° MK. […] There is also down-regulation of ET1 secretion by a specific inhibitor of PLC (U73122), and by an ET-convertase inhibitor, CGS35066, which served as a control compound. In addition, PLC-inhibitor robustly affects ET1 secretion in WT and Trpv4^−/− 1° MK. (FIG. 8C) ET1 expression by UVB-exposed 1° MK depends on TRPV4 and PLC—immunocytochemistry. Shown is specific ET1 immunolabeling in 1° MK, exposed to UVB using the UVB-LEDs, as for Ca^++ imaging. Use of the UVB-LED device precluded application of a ET1 ELISA, only irradiated cells could be examined. […] (FIG. 8D) ET1 expression by UVB-exposed 1° MK depends on TRPV4 and PLC—quantification of immunocytochemistry.

[4] = tested on: mice, UVB-exposed hind paws; experiment: UVB-evoked nocifensive behavior after topical GSK205 (Hargreaves, von Frey); assay type: in vivo, mouse
Method: Behavioral tests were performed to evaluate the decrease in withdrawal thresholds in response to mechanical von Frey hair or thermal stimuli applied to hind paws. […]. These withdrawal thresholds were ascertained before and after UV exposure. Mice were exposed using a Bio Rad Gel Doc 2000 UV transilluminator (302 nm) for 5 minutes with an exposure of 600 mJ/cm^2, 3-5 days after the last application of tamoxifen/oil.
GSK205 topical treatment: A viscous solution of 68% EtOH/5% glycerol plus 1 mM or 5 mM GSK205 (none for control) was applied to hindpaws by rubbing in 20 μL, applied at time-points 1 hour and again 10 min before UV exposure.
Behavioral tests were performed to evaluate the decrease in withdrawal thresholds in response to mechanical or thermal stimuli applied to hind paws. These withdrawal thresholds were ascertained before and after UVB exposure. Mice were confined by plexi-glass enclosures on top of 25×26 cm Bio Rad Gel Doc 2000 UV transilluminator (302 nm), and otherwise allowed to openly explore this environment. UV-exposure lasted for 5 minutes with an exposure of 600 mJ/cm^2.
Hindpaw mechanical withdrawal thresholds were determined by the automated von Frey hair method, using a 0.5 mm diameter stainless steel filament, part of an automated plantar touch stimulator (Ugo Basile, Modena, Italy). Relevant detail included pre-test acclimatization in a quiet room for 30 min, conducting the test at the same time of day and blinded observers. The stimulus was delivered to the hindpaw, automatically discontinued upon withdrawal, and its intensity recorded automatically. 6-8 trials per animal were conducted, with equal exposure of both hindpaws, leading to an average withdrawal threshold. Results are reported as […], which was calculated by subtracting post-treatment from pre-treatment measurements, expressed as % or relative to 1.0.
Hindpaw thermal (hot) withdrawal thresholds were determined by the well-established Hargreaves' method, using an infra-red thermal stimulation device that delivers the stimulus from underneath the hindpaw combined with automatic shut-off upon withdrawal (Ugo Basile). Stimulation and measurements were conducted as described for von Frey hair testing. A cutoff of 20 sec was set to prevent tissue damage.

[5] = tested on: primary mouse keratinocytes (1° MK); experiment: IL-1β secreted by cultured keratinocytes after UVB exposure (ELISA); assay type: cell-based; settings: 5 μM GSK205
Method: Before UV irradiation, culture media was replaced with PBS. The cells were then irradiated at a dose of 50 mJ/cm^2 with UVB. 24 hours later, supernatants were assayed using IL-1β ELISA (R&D Systems, Minneapolis, Minn.).

[6] = target: TRPV4 (Homo sapiens, UniProt Q9HBA0); experiment: UVB-evoked Ca++ transient in TRPV4-transfected HEK293T cells; assay type: cell-based; design: expressed in transfected cells; settings: preexposure to 20 μM GSK205
Sequence of TRPV4 (Q9HBA0 whole entry, species assumed): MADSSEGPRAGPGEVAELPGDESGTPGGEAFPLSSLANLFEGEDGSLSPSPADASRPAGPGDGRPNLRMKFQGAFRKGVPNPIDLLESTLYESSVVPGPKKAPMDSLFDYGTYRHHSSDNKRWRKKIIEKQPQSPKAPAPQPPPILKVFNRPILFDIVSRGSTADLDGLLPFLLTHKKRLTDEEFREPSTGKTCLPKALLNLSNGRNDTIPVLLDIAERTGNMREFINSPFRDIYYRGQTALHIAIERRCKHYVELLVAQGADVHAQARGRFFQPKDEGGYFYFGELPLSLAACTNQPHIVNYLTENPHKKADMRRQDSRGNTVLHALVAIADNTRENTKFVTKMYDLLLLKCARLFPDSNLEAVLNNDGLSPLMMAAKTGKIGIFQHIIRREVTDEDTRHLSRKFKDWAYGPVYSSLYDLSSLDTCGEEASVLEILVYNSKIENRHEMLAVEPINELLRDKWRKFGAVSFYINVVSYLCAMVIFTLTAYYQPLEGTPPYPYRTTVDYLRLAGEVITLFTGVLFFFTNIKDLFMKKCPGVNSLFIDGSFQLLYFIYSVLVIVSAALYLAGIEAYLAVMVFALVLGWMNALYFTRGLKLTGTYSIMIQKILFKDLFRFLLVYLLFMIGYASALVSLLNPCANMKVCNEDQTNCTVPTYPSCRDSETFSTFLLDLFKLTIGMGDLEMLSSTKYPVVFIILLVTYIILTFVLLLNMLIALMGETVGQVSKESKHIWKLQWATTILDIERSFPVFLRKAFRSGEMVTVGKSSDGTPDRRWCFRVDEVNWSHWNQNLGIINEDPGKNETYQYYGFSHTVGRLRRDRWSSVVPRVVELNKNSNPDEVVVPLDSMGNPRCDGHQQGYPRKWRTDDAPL
From the text: (FIG. 2B) Focusing properties of the ball lens. […] (FIG. 2E) TRPV3 activation experiment. […] (FIG. 2F) TRPV4 selective activator GSK101-related findings.
To assess whether TRPV4 is sufficient for the UVB-evoked Ca++ influx, we introduced high levels of TRPV4 into HEK293 epithelial cells. TRPV4 expression endowed these cells with the ability to generate robust Ca++ signaling in response to UVB (FIG. 2G). Moreover, if they were pre-exposed to GSK205, the response was blocked. Thus, heterologous TRPV4 expression is sufficient for UVB radiation to cause a cellular Ca++ transient.

CN(CCc1ccc(Nc2nc(-c3ccccc3)cs2)cc1)Cc1ccccc1 [Compound 16-8]
histopathological score for pancreas inflammation [1]: significantly reduced
myelo-peroxidase content of the pancreas [1]: significantly reduced
pain behavior (movement events over 6 h) [1]: virtually eliminated
pancreatic edema [1]: virtually eliminated
serum amylase [1]: significantly reduced; also recorded: reduced, but not significantly

CCN(CCc1ccc(Nc2nc(-c3ccccc3)cs2)cc1)Cc1ccccc1 [Compound 16-19]
stability in plasma [2]: no loss of detectable compound

CN(CCc1ccc(Nc2nc(-c3cccnc3)cs2)cc1)Cc1ccccc1 [GSK205]
ET1 secretion, supernatant of non-stimulated 1° MK [3]: significant down-regulation
delay in thermal hypersensitivity after UVB ([4]; topical 1 mM GSK205, WT mice): ~24 h
off-target effects on withdrawal behavior ([4]; topical 5 mM GSK205, Trpv4−/− mice vs vehicle): did not elicit off-target effects
sensitivity to von Frey hair mechanical stimulation after UVB ([4]; topical 5 mM GSK205, WT mice): significantly reduced sensitivity
thermally-evoked nocifensive behavior after UVB ([4]; topical 5 mM GSK205, WT mice): sustained attenuation
UVB-induced increase in IL-1β secretion by 1° MK [5]: completely eliminated
UVB-evoked Ca++-signal in TRPV4-transfected HEK293T cells [6]: virtually eliminates
